Data taken from patent publication US7432291B2, “Ether derivatives” (Hoffman-La Roche Inc., priority 2004, dated 2008).

Target: T1, HER2 (pY 1248) in Calu3 cells (Homo sapiens, UniProt P04626)
T1 construct: endogenous in cells; host or cells: Calu-3 (HTB-55)
Experiment: Inhibition of HER2 phosphorylation in Calu3 tumor cell line
Format: cell-based
Settings: Calu-3, compound concentration 1 μM, 16 h incubation, percentage of the DMSO treated control, read-out: Percent inhibition of HER2-phosphorylation
Description: Inhibition of HER2 Phosphorylation in Calu3 Tumor Cell Line
2×10^5 Calu3 cells [Calu-3 (HTB-55) cells available from ATTC] per well were plated 12-well plate. After 4 days cells were starved for 16 h in DMEM/0.5% FCS/1% Glutamine. During this time cells were incubated with 1 μM of the compound. Afterwards cells were lysed in lyses buffer containing 1% Triton, 10% Glycerol, 1 mM EGTA, 1.5 mM MgCl2, 150 mM NaCl, 50 mM Hepes pH 7.5, 1 mM PMSF, 10 μg/mL Aprotinin and […] Orthovanadate. Cell lysates were analyzed on a SDS PAGE and after transfer to a nitrocellulose membrane detected with an antibody specifically recognizing the pY 1248 in HER2. Inhibition of HER2 phosphorylation is calculated as percentage of the DMSO treated control. This percentage was calculated according to the following formula: Inhibition in %=100−(Phosphorylated-HER2-Signal of Test Sample*100/Phosphorylated-HER2-Signal DMSO-control).

T1 sequence (P04626 23-1255): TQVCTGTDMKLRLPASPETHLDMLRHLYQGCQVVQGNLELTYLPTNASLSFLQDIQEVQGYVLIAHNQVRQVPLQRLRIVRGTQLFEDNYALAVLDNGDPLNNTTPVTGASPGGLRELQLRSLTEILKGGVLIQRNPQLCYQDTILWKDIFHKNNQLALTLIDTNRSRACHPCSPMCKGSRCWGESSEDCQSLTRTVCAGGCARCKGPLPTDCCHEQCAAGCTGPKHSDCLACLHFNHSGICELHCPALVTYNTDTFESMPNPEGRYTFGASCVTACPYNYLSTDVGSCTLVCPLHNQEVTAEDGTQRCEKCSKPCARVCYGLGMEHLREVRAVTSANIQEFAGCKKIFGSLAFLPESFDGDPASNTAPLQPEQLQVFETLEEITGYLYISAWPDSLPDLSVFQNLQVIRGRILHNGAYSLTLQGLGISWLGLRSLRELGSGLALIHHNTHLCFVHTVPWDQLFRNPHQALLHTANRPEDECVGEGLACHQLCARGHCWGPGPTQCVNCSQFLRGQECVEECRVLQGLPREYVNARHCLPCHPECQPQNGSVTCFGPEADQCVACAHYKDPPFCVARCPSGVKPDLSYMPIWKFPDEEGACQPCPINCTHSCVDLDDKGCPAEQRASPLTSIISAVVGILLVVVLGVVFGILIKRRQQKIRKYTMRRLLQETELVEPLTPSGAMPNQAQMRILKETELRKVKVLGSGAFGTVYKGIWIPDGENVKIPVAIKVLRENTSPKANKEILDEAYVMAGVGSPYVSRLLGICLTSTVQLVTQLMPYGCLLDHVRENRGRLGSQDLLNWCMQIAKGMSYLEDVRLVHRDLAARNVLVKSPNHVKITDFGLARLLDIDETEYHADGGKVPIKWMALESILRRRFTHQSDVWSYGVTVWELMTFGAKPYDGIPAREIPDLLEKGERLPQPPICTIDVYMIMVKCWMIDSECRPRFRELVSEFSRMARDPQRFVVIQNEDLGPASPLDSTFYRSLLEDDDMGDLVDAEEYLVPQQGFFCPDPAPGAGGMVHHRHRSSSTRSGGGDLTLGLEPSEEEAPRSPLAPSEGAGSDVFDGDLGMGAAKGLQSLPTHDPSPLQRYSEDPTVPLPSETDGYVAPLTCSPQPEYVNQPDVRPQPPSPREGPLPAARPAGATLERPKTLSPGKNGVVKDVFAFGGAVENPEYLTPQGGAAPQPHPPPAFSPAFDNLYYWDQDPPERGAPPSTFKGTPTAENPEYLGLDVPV

Row | Compound | inhibition at 1 µM [%]
1 | FC(F)Oc1ccc(/C=C/c2nc(COc3ccc(COCCn4ccnn4)cc3)co2)cc1 [example 1, 1-[2-(4-{2-[2-(E)-(4-Difluoromethoxy-phenyl)-vinyl]-oxazol-4-ylmethoxy}-benzyloxy)-ethyl]-1H-[1,2,3]triazole] | 69.6
2 | FC1(F)Oc2ccc(/C=C/c3nc(COc4ccc(COCCn5ccnn5)cc4)co3)cc2O1 [example 2, 1-[2-(4-{2-[2-(E)-(2,2-Difluoro-benzo[1,3]dioxol-5-yl)-vinyl]-oxazol-4-ylmethoxy}-benzyloxy)-ethyl]-1H-[1,2,3]triazole] | 85.8
3 | FC(F)(F)Sc1ccc(/C=C/c2nc(COc3ccc(COCCn4ccnn4)cc3)co2)cc1 [example 3, 1-[2-(4-{2-[2-(E)-(4-Trifluoromethylsulfanyl-phenyl)-vinyl]-oxazol-4-ylmethoxy}-benzyloxy)-ethyl]-1H-[1,2,3]triazole] | 73.4

Results, then the compound that gave them:

Row | inhibition at 1 µM [%] | Compound
4 | 78.6 | FC(F)(F)Oc1ccc(/C=C/c2nc(COc3ccc(COCCn4ccnn4)cc3)co2)cc1 [example 4, 1-[2-(4-{2-[2-(E)-(4-Trifluoromethoxy-phenyl)-vinyl]-oxazol-4-ylmethoxy}-benzyloxy)-ethyl]-1H-[1,2,3]triazole]
5 | 54 | FC(F)(F)c1ccc(/C=C/c2nc(COc3ccc(COCCn4ccnn4)cc3)co2)cc1 [reference compound 2, 1-[2-(4-{2-[(E)-2-(4-Trifluoromethyl-phenyl)-vinyl]-oxazol-4-ylmethoxy}-benzyloxy)-ethyl]-1H-[1,2,3]triazole, reference compound]

Tested on: not given
Experiment: not given
Settings: not given

Row | Compound | melting point [°C]
6 | Cc1cc(OCc2coc(C=Cc3ccc(OC(F)F)cc3)n2)ccc1COCCn1ccnn1 [Example 7, 1-[2-(4-{2-[2-(4-Difluoromethoxy-phenyl)-vinyl]-oxazol-4-ylmethoxy}-2-methyl-benzyloxy)-ethyl]-1H-[1,2,3]triazole] | 119 to 120
7 | Cc1cc(OCc2coc(C=Cc3ccc(SC(F)(F)F)cc3)n2)ccc1COCCn1ccnn1 [Example 8, 1-[2-(2-Methyl-4-{2-[2-(4-trifluoromethylsulfanyl-phenyl)-vinyl]-oxazol-4-ylmethoxy}-benzyloxy)-ethyl]-1H-[1,2,3]triazole] | 102
8 | Cc1cc(OCc2coc(C=Cc3ccc(OC(F)(F)F)cc3)n2)ccc1COCCn1ccnn1 [Example 9, 1-[2-(2-Methyl-4-{2-[2-(4-trifluoromethoxy-phenyl)-vinyl]-oxazol-4-ylmethoxy}-benzyloxy)-ethyl]-1H-[1,2,3]triazole] | 84 to 85
